In ChEMBL document CHEMBL1139950, “Derivatives of oxoisoaporphine alkaloids: a novel class of selective acetylcholinesterase inhibitors” (Bioorg Med Chem Lett, 2007) one finds IC50 and Ratio IC50 data, which are given here for 17 molecules.

One assay addresses Butyrylcholinesterase (Equus caballus, UniProt Q9N1N9). Briefly: Inhibition of equine serum BuChE.
The nature of assay [1]: Selectivity for electric eel AChE over equine serum BuChE.
The target of another assay is Acetylcholinesterase (Electrophorus electricus, UniProt O42275). Kind of assay: Inhibition of electric eel AChE.
Sequence of Acetylcholinesterase (O42275 whole entry): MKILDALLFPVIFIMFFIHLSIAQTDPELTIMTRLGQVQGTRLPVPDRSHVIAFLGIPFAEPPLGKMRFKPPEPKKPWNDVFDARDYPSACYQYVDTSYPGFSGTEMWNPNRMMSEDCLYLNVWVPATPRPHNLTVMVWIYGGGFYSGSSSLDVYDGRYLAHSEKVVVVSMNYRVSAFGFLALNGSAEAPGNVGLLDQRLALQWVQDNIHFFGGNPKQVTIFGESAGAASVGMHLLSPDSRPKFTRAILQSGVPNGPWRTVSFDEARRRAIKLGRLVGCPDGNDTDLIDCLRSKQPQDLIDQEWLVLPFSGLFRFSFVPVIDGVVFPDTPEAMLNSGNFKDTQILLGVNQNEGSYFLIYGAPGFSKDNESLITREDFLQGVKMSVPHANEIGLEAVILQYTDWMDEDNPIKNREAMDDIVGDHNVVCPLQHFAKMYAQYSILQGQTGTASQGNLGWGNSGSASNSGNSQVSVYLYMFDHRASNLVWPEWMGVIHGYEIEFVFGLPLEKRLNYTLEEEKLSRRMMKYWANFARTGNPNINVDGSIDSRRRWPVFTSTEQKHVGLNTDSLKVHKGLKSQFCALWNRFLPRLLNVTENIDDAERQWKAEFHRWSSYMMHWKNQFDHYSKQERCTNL

Sequence of Butyrylcholinesterase (Q9N1N9 whole entry): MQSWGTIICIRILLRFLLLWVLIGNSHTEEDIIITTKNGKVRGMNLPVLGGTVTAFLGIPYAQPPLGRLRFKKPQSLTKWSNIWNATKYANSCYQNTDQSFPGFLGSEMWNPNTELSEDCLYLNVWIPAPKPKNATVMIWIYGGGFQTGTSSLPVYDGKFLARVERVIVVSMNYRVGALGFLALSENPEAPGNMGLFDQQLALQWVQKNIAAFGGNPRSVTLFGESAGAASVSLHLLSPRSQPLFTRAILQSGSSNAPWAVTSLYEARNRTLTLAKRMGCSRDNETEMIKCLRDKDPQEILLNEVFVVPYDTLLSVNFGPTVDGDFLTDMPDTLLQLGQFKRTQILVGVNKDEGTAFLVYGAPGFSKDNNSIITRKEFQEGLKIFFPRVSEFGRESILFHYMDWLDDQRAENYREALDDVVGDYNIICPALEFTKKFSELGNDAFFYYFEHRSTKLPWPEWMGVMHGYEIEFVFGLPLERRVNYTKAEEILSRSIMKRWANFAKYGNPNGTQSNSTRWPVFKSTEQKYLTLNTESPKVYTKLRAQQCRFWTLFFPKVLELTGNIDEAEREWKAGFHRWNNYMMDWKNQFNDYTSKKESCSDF

Turning to `O=C(CN1CCCC1)Nc1ccc2c(c1)C(=O)c1cccc3ccnc-2c13`, the IC50 on Butyrylcholinesterase came out at 3490 nM; against Acetylcholinesterase it was 6.18 nM. In assay [1], the Ratio IC50 is 560.
Consider `CN(C)CCNCCC(=O)Nc1ccc2c(c1)C(=O)c1cccc3ccnc-2c13`, for which the IC50 was found to be 5370 nM against Butyrylcholinesterase and 120 nM against Acetylcholinesterase. Also, the Ratio IC50 in assay [1] came to 45.
As for `CN(C)CCC(=O)Nc1ccc2c(c1)C(=O)c1cccc3ccnc-2c13`, the IC50 against Butyrylcholinesterase was determined as 1950 nM; at Acetylcholinesterase it was 33.9 nM. Moreover, the Ratio IC50 in assay [1] was 58.
In the same order, the values of `CN(C)CCCC(=O)Nc1ccc2c(c1)C(=O)c1cccc3ccnc-2c13` are 4400 nM, 30.5 nM and 144.
In the same order, the values of `C[N+](C)(C)CCC(=O)Nc1ccc2c(c1)C(=O)c1cccc3ccnc-2c13` are 2820 nM, 4.81 nM and 590.
`CC[N+](C)(CC)CCCC(=O)Nc1ccc2c(c1)C(=O)c1cccc3ccnc-2c13`: the IC50 against Butyrylcholinesterase worked out at 5190 nM; against Acetylcholinesterase, 2.62 nM. Further, in assay [1], the Ratio IC50 was 1980.
For `CN(C)CC(=O)Nc1ccc2c(c1)C(=O)c1cccc3ccnc-2c13`, in that order: 4370 nM, 96.5 nM and 45.
For the molecule `C[N+](C)(C)CC(=O)Nc1ccc2c(c1)C(=O)c1cccc3ccnc-2c13`, the IC50 at Butyrylcholinesterase was found to be 1310 nM; against Acetylcholinesterase, 14.9 nM. The Ratio IC50 in assay [1] amounted to 88.
Consider `CCN(CC)CCC(=O)Nc1ccc2c(c1)C(=O)c1cccc3ccnc-2c13`, for which the 50% inhibitory concentration (IC50) is 6060 nM against Butyrylcholinesterase and 11.6 nM against Acetylcholinesterase. Moreover, in assay [1], the Ratio IC50 was determined as 523.
For `O=C(CCN1CCCC1)Nc1ccc2c(c1)C(=O)c1cccc3ccnc-2c13`, in that order: 2410 nM, 2.47 nM and 980.
With `O=C(CCCN1CCCC1)Nc1ccc2c(c1)C(=O)c1cccc3ccnc-2c13`, the IC50 was 3610 nM against Butyrylcholinesterase and 12.1 nM against Acetylcholinesterase. Also, in assay [1], the Ratio IC50 is 300.
For `O=C(CCNCCO)Nc1ccc2c(c1)C(=O)c1cccc3ccnc-2c13`, in that order: 5340 nM, 55.1 nM and 97.
For `C[N+](C)(C)CCCC(=O)Nc1ccc2c(c1)C(=O)c1cccc3ccnc-2c13`, in that order: 2370 nM, 4.79 nM and 490.
In the same order, the values of `C[N+]1(CC(=O)Nc2ccc3c(c2)C(=O)c2cccc4ccnc-3c24)CCCC1` are 1690 nM, 1.08 nM and 1560.
As to `Nc1ccc2c(c1)C(=O)c1cccc3ccnc-2c13`, the IC50 against Butyrylcholinesterase stood at 100000 nM; against Acetylcholinesterase, 26900 nM.
On to `C[N+]1(CCC(=O)Nc2ccc3c(c2)C(=O)c2cccc4ccnc-3c24)CCCC1`, for which the IC50 turned out to be 1960 nM against Butyrylcholinesterase and 1.06 nM at Acetylcholinesterase. In assay [1], the Ratio IC50 amounted to 1850.
For `C[N+]1(CCCC(=O)Nc2ccc3c(c2)C(=O)c2cccc4ccnc-3c24)CCCC1`, in that order: 3230 nM, 2.51 nM and 1290.

As a reminder, the IC50 is the point on the concentration scale where inhibition reaches its midpoint. Higher therefore signals weaker potency in that assay.
